One may read the IC50 as the concentration that inhibits the measured activity by half. As usually defined, the AUC(0-t) is the area under the concentration-time curve up to a stated or last time point. A higher AUC(0-t) goes with high exposure. The Cmax is the highest concentration seen after dosing. By Tmax is commonly meant the time from dosing to the highest level. Usually half-life stands for the time in which the quantity being followed falls by half.

Read-outs that look alike come from different tables or passages of the source. Where only a bound is given, the exact number is not on record here.

Data on three compounds can be found in patent US11512074B2, “Substituted diamino heterocyclic carboxamide compound and a composition containing the compound and use thereof” (Shenzhen TargetRx, Inc., priority 2018, dated 2022).

In one data set the test system is Ba/F3 FLT3-ITD cells. The data set can be described thus: Inhibition of Ba/F3 FLT3-ITD cell proliferation (CTG). Type of data set: cell-based. The settings on record: 72 hours, read-out: BaF3 [FLT3-ITD] IC50. The method, then: (§1) Cell lines were cultured under the condition of 37° C., 5% CO2 and 95% humidity: cell line Ba/F3 parental (suspended, 3000 cells/well, medium was RPMI-1640+10% FBS+8 ng/ml IL-3), cell line Ba/F3 FLT3-ITD (suspended, 3000 cells/well, medium was RPMI-1640+10% FBS)
(§2) Reagents and materials: Fetal bovine serum (FBS, GBICO, Cat. No. 10099-141), CellTiter-Glo® Luminescent Cell Viability Assay (Promega, Cat. No. G7572), 96-well plate with transparent flat bottom and black walls (Corning®, Cat. No. 3603), control compound AC220 (Selleck, Cat. No. S1526).
(§3) Cell Culture and Inoculation: • 1. Cells in the logarithmic growth phase were harvested and counted using a platelet counter. The cell viability was determined by trypan blue exclusion method to ensure that the cell viability was greater than 90%; • 2. The cell concentration was adjusted and 90 μL of the cell suspension was added into a 96-well plate respectively; • 3. The cells in the 96-well plate were cultured overnight under the condition of 37° C., 5% CO2 and 95% humidity.
(§4) Drug Dilution and Dosing: • 1. The 10-fold drug solutions were prepared with a maximum concentration of 100 μM, which was diluted using a 3.16-fold serial gradient dilution, resulting in 9 concentrations. 10 μL of the drug solutions was added to each well of the 96-well plate inoculated with Ba/F3 parental cells; and each drug concentration was set in triplicate. • 2. The 10-fold drug solutions were prepared with a maximum concentration of 10 μM, which was diluted using a 3.16-fold serial gradient dilution, resulting in 9 concentrations. 10 μL of the drug solutions was added to each well of the 96-well plate inoculated with Ba/F3 FLT3-ITD cells; and each drug concentration was set in triplicate. • 3. The cells in the 96-well plate with drugs were cultured at 37° C., 5% CO2 and 95% humidity for 72 hours, and then CTG analysis was carried out.
(§5) Plate Reading at the End Point: • 1. CTG reagent was thawed and the cell plate was equilibrated to room temperature for 30 minutes; • 2. Equal volume of the CTG solution was added to each well; • 3. The cell plate was shaked on the orbital shaker for 5 minutes to lyse the cells; • 4. The cell plate was placed at room temperature for 20 minutes to stabilize the cold light signal; • 5. The cold light values were read.
(§6) GraphPad Prism 8.0 software was used to analyze the data, and the data was fitted using the non-linear S-curve regression to get a dose-effect curve, and IC50 values were calculated. Cell viability (%)=(Lum of test drug−Lum of medium control)/(Lum of cell control−Lum of medium control)×100%.

Another data set deals with MOLM-13 cells. Put plainly: Inhibition of cell MOLM-13 proliferation (CTG assay). Type of data set: cell-based. The settings on record: Homo sapiens, 72 hours, read-out: MOLM-1 IC50. An excerpt: (§7) Cell MV-4-11 (ATCC, Cat. No. CRL-9591), cell MOLM-13 (COBIOER, Cat. No. CBP60678), RPMI-1640 (GIBCO, Cat. No. A10491-01), penicillin-streptomycin (GIBCO, Cat. No. 15140-122), fetal bovine serum (GIBCO, Cat. No. 10099-141), phosphate buffer solution PBS (GIBCO, Cat. No. 10010-031), DMSO (Sigma, Cat. No. D8418-1L), CelltiterGlo Assay kit (CTG) (Promega, Cat. No. G7573), 96-well plate with transparent flat bottom and black walls (PerkinElmer, Cat. No. 6005680-50), plate shaker (QILINBEIER, Cat. No. B-9002), centrifuge (Eppendorf, Cat. No. 5804R), CO2 incubator (Thermo Scientific, Cat. No. 371), microscope (OLYMPUS Cat. No. CKX41), multi-plate reader (PerkinElmer, Cat. No. EnVision).
(§8) (2) Preparation of Cell Suspension • a) The medium was collected from the culture bottle and centrifuged at 1000 rpm for 5 min. • b) The supernatant was discarded, and the cells were resuspended in medium containing 10% fetal bovine serum, and counted to prepare a cell suspension (cell viability was greater than 90%). • c) The cell suspension was added into a 96-well plate, with […] in each well, namely 5000 MV-4-11 cells/well; 5000 MOLM-13 cells/well. • d) The cell plate was cultured overnight in a 37° C., 5% CO2 incubator.
(§9) Dilution of Compounds in DMSO: • a) MV-4-11 cells: The compounds were diluted with DMSO from 10 mM to 60 uM, and then subjected to a 3-fold serial gradient dilution in DMSO from 60 uM, resulting in 9 concentrations. • b) MOLM-13 cells: The compounds were diluted with DMSO from 10 mM to 200 uM, and then subjected to a 3-fold serial gradient dilution in DMSO from 200 uM, resulting in 9 concentrations. • c) Compound Taxol was diluted with DMSO from 10 mM to 200 uM, and then subjected to a 3-fold serial gradient dilution in DMSO from 200 uM, resulting in 9 concentrations.
(§10) (4) Treatment of Cells with Compounds (after the Overnight Incubation of the Cell Plate) • a) Each well was replenished with 99 μl of growth medium containing 10% FBS, and then 1 μl of the diluted compound was added to the well. The concentration of DMSO was 0.5%. • b) Concentrations of the tested compounds were: MV-4-11 cells: 300, 100, 33.3, 11.1, 3.7, 1.23, 0.41, 0.137, 0.046, 0 [nM]. • MOLM-13 cells: 1000, 333.3, 111.1, 37.04, 12.35, 4.1, 1.37, 0.46, 0.15, 0 [nM]. • c) Concentrations of control compound Taxol were: 1000, 333.3, 111.1, 37.04, 12.35, 4.12, 1.37, 0.46, 0.15, 0 [nM]. • d) The cell plate was placed in the incubator for 72 hours.
(§11) (5) CTG Assay • a) The test plate was placed at room temperature and equilibrated for 30 minutes, and 60 μl of the culture medium was discarded. • b) 60 μl of CTG reagent (CelltiterGlo kit) was added, and the plate was placed on a rapid plate shaker to shake for 2 min, and then let it stand at room temperature for 20 min. • c) Envision was used to read the values.
(§12) IC50 values were calculated using GraphPad Prism 6 software. The IC50 (half inhibitory concentration) values of the compounds were obtained by the following non-linear fitting formula. Y=Bottom+(Top−Bottom)/(1+10^((Log IC50−X)*HillSlope)) • X: Log value of the compound concentration • Y: Inhibition rate (% inhibition) % inhibition (inhibition rate)=100*(value of the High Control-value of the test compound well)/(value of the High Control-value of the Low Control)

Another data set concerns MV-4-11 cells. Put plainly: Inhibition of cell MV-4-11 proliferation (CTG assay). The settings on record: Homo sapiens, MV4-11, 72 hours. It counts as cell-based.
Text: as §7, §8, §9, §10, §11, §12

In the next data set the test system is Ba/F3 parental cells. The data set can be described thus: Inhibition of Ba/F3 parental cell proliferation (CTG). Type of data set: cell-based. The following applies: Mus musculus, BaF3, 72 hours, with IL-3. How it is done:
as §1, §2, §3, §4, §5, §6

Data set [1] can be described thus: Pharmacokinetic experiment in rats. Type of data set: in vivo, Sprague-Dawley rats. The following applies: rat; for AUC(0-t) / Cmax / Tmax / half-life / AUC(0-inf) / MRT inf: male, Sprague-Dawley, plasma; for AUC(0-inf): read-out: AUCINF_pred; for MRT inf: read-out: MRTINF_pred. How it is done: Six male Sprague-Dawley rats, 7 to 8 weeks old, weighing approximately 210 g, were divided into 2 groups with 3 rats in each group. The pharmacokinetic differences of the compounds were compared after they were administered to the rats at a single dose through vein (in vein 3 mg/kg) or mouth (orally 10 mg/kg).
The rats were fed with standard feed and water, and fasted 16 hours before the experiment. The drugs were dissolved with PEG400 and dimethyl sulfoxide. The blood samples were collected from eyelids at the time point of 0.083, 0.25, 0.5, 1, 2, 4, 6, 8, 12 and 24 hours after administration.
The rats were anesthetized for a short time after inhaling ether, and 300 μL of blood samples was collected from the eyelids and put into test tubes, which contains 30 μL of 1% heparin salt solution. The test tubes were dried overnight at 60° C. prior to use. After the blood sample collection at the last time point, the rats were sacrificed after the ether anesthesia.
Immediately after the collection of the blood samples, the test tubes were gently inverted at least 5 times to ensure the fully mixing and placed on ice. The blood samples were centrifuged at 4° C., 5000 rpm for 5 minutes to separate the plasma from the red blood cells. 100 μL of plasma was pipetted into a clean plastic centrifuge tube, with the name of the compound and time point on it. The plasma was stored at −80° C. before analysis, and LC-MS/MS was used to determine the concentration of the compounds disclosed herein in plasma. Pharmacokinetic parameters were calculated based on the plasma concentrations of each animal at different time points.

Turning to `[2H]C1([2H])CN(c2ccc(Nc3nc(NC4CCOCC4)c(CC)nc3C(N)=O)cc2OC)CC([2H])([2H])C1N1CCN(C)CC1` [Compound T-7, 6-ethyl-3-((3-methoxy-4-(4-(4-methylpiperazin-1-yl)piperidin-1-yl-3,3,5,5-d4)phenyl)amino)-5-((tetrahydro-2H-pyran-4-yl)amino)pyrazine-2-carboxamide], the 50% inhibitory concentration (IC50) came to 53.9 nM in the data set on Ba/F3 FLT3-ITD cells, 12.7 nM in the data set on MOLM-13 cells, 1.64 nM in the data set on MV-4-11 cells and 8430 nM in the data set with Ba/F3 parental cells.

Regarding `[2H]C([2H])([2H])C([2H])([2H])c1nc(C(N)=O)c(Nc2ccc(N3CCC(N4CCN(C)CC4)CC3)c(OC)c2)nc1NC1CCOCC1` [Compound T-4, 6-(ethyl-d5)-3-((3-methoxy-4-(4-(4-methylpiperazin-1-yl)piperidin-1-yl)phenyl)amino)-5-((tetrahydro-2H-pyran-4-yl)amino)pyrazine-2-carboxamide], in the data set on MOLM-13 cells, the IC50 stood at 13 nM. Also, the IC50 in the data set on MV-4-11 cells is 1.92 nM. For the same compound, in data set [1] (IV 3 mg/kg), the area under the curve AUC(0-t) was found to be 639 ng·h/mL, the Cmax came out at 138 ng/mL, the time to peak (Tmax) was found to be 0.08 h and the half-life is 4.52 h. For the same compound, in data set [1] (IV 3 mg/kg), the AUC(0-inf) amounted to 651 ng·h/mL, the MRT inf stood at 4.56 h and the Vz_pred was 30.45 L/kg. Further, in data set [1] (PO 10 mg/kg), the area under the curve AUC(0-t) came out at 666 ng·h/mL, the Cmax turned out to be 61.2 ng/mL, the time to peak (Tmax) worked out at 4 h and the half-life is 4.07 h. In addition, in data set [1] (PO 10 mg/kg), the AUC(0-inf) was 687 ng·h/mL, the MRT inf was 8.11 h and the Vz_pred came to 87.60 L/kg. Further, the F in data set [1] (PO 10 mg/kg vs IV 3 mg/kg) amounted to 31.26%.

With `[2H]C([2H])([2H])Oc1cc(Nc2nc(NC3CCOCC3)c(C([2H])([2H])C([2H])([2H])[2H])nc2C(N)=O)ccc1N1CCC(N2CCN(C)CC2)CC1` [Compound T-6, 6-(ethyl-d5)-3-((3-(methoxy-d3)-4-(4-(4-methylpiperazin-1-yl)piperidin-1-yl)phenyl)amino)-5-((tetrahydro-2H-pyran-4-yl)amino)pyrazine-2-carboxamide], the IC50 was 69.1 nM in the data set on Ba/F3 FLT3-ITD cells, 11.9 nM in the data set on MOLM-13 cells, 2.07 nM with MV-4-11 cells and > 10000 nM with Ba/F3 parental cells.
